The values below come from patent US20230219957A1, “SMALL MOLECULE CB002-ANALOGES RESTORE THE P53 PATHWAY AND TARGET S-PHASE CHECKPOINT” (Brown University, priority 2020, published 2023).

In assay [1] the test system is SW480 colon cancer cells. Put plainly: Immunoblot of cell cycle markers. It counts as cell-based, human. The note with it: synchronized SW480. As for the experimental part: Immunoblotting (additional method). After treatment, floating cells were collected, and adherent cells were trypsinized, washed with phosphate-buffered saline, and lysed with RIPA buffer (Sigma-Aldrich, St. Louis, Mo., USA) for thirty minutes to one hour at 4° C. Protein lysates were pelleted. The supernatant was collected. Total protein per sample was determined using a Pierce™ BCA Protein Assay Kit (Thermo Fisher Scientific, Waltham, Mass., USA). Proteins were denatured using 1× NuPAGE® LDS sample buffer (Thermo Fisher Scientific, Waltham, Mass., USA) and reduced with 2-mercaptoethanol (Sigma-Aldrich, St. Louis, Mo., USA). Protein lysates were boiled for fifteen min at 95° C. After protein normalization, samples were loaded into NuPAGE™ Novex™ 4-12% Bis-Tris Protein Gels (Thermo Fisher Scientific, Waltham, Mass., USA). Gel electrophoresis was performed with NuPAGE™ MES SDS Running Buffer. Proteins were transferred onto an Immobilon-P membrane (PVDF, EMD Millipore, Taunton, Mass., USA) using a Bio-Rad system with a 10% Tris-Glycine and 10% methanol transfer buffer diluted in distilled and deionized water. Membranes were blocked with 10% milk in Tris-buffered saline with Tween 20 (TBST) solution. The membranes were incubated overnight with the primary antibody, washed with TBST, and incubated with secondary antibody for one hour. Primary antibody incubations were performed in 5% milk or 5% bovine serum albumin in TBST solution as per manufacturer instructions. Signal was detected using a chemiluminescent detection kit, followed by autoradiography. The following antibodies were used: p53 (1:1000, #sc-126, Santa Cruz Biotechnology, Santa Cruz, Calif., USA), p73 (1:1000, #A300-126A, Bethyl Laboratories), Noxa (1:250, #OP180, EMD Millipore, Taunton, Mass., USA), DR5 (#3696), cleaved PARP (#9546), phospho-RPA32/RPA2 (#54762), p-cdc2 (#9111), p-cdc25c, pH3 (#3377) (1:1,000; Cell Signaling Technology, Inc., Danvers, Mass. USA) and β-actin (1:10000, A5441, Sigma).
(§1) Cell synchronization. Synchronized cells were synchronized by double thymidine block. Cells were treated with […] thymidine for sixteen hours. The drug was removed and replaced by complete growth media for eight hours. Cells were treated for the second time with […] thymidine for sixteen hours. At this point, cells were treated and harvested.
Background: Immunoblotting shows a protein as a band on a membrane.

The test system of assay [2] is SW480 colon cancer cells. Briefly: Propidium iodide / BrdU cell cycle analysis of synchronized cells. It is filed as cell-based, human. The note with it: all time points, versus DMSO vehicle control. As for the experimental part: as §1
Propidium iodide and BrdU flow cytometry assay. Cells were seeded at a density of 5×10^5 in a 6-well plate and treated for forty-eight to seventy-two hours. After treatment, floating cells were collected, and adherent cells were trypsinized, pelleted, washed with phosphate-buffered saline, and fixed in 70% ethanol overnight. For propidium iodide (PI) based Sub-G1 apoptosis analysis, cells were spun down after fixation and resuspended in phosphate-citric acid buffer (0.2M Na2HPO4+0.1M Citric Acid, pH 7.8) at room temperature for five minutes. The cell pellet was resuspended for staining with 50 μg/mL PI and 250 μg/mL ribonuclease (RNase A). For BrdU analysis, after cell fixation, cells were spun down and resuspended in one mL of 2N HCL with 0.5% Triton X-100 for thirty minutes at room temperature. Cells were pelleted, washed with phosphate-buffered saline, and resuspended in 20 μL BrdU antibody (BD Biosciences, cat no. 347580) diluted in 0.5% Tween 20/PBS/5% bovine serum albumin for thirty minutes at room temperature. Cells were then spun down and resuspended in 140 μg/mL goat-anti mouse Alexa Fluor 488 (#A-11008, Thermo Fisher Scientific, Waltham, Mass., USA) in 0.5% Tween 20 in phosphate-buffered saline/5% bovine serum albumin for thirty minutes at room temperature. Cells were then spun down and resuspended in 5 μg/mL PI: 250 μg/mL RNase A solution. Samples were analyzed on an Epics Elite Epics flow cytometer (Coulter-Beckman).
BrdU analysis gating. Cell aggregates were gated out in the PI Peak vs DNA PI histogram. BrdU lower limit intensity was set on the upper limit of the negative control. The no BrdU antibody assays and no goat-anti mouse Alexa Fluor 488 antibody assays were the negative controls. […] Gating was held constant throughout the samples within a given assay.

The structures appear in SMILES notation.

`Cn1c(=O)c2c(ncn2C)n(C)c1=O` [caffeine, reference compound]: the “pcdc2(Tyr15) and pcdc25c(Ser16) expression” value in the assay with SW480 colon cancer cells [1] (combination with etoposide) is reported as “decreased expression”. Moreover, in the assay with SW480 colon cancer cells [2], the S-phase population result is “comparable to the dimethyl sulfoxide vehicle control”.

Take `COc1cc([C@@H]2c3cc4c(cc3[C@@H](O[C@@H]3O[C@@H]5CO[C@@H](C)O[C@H]5[C@H](O)[C@H]3O)[C@H]3COC(=O)[C@H]23)OCO4)cc(OC)c1O` [etoposide, reference compound]: the “pcdc2(Tyr15) and pcdc25c(Ser16) protein expression” value with SW480 colon cancer cells [1] (single agent) is “enhances protein expression”.
